Key:
rat [1] = details: Sub-acute repeat dose toxicity; wistar; Oral; Gavage/Intubation; dose end: 14 day; group: systemic; systemic / hematology / [other] / [other]
mouse [2] = details: Subchronic oral toxicity in rodents, Gavage/Intubation, dose end: 91 day, group: systemic
primate = details: Subchronic oral toxicity in nonrodent, Gavage/Intubation, dose end: 91 day, group: systemic, systemic / pathology microscopic / intestine small / erosion
rat [3] = details: Prenatal developmental toxicity study, Oral, Gavage/Intubation, dose end: 18 GD
rat [4] = details: Subchronic oral toxicity in rodents, Gavage/Intubation, dose end: 91 day, group: systemic
dog [5] = details: Subchronic oral toxicity in nonrodent, beagle, Gavage/Intubation, dose end: 91 day, group: systemic, systemic / pathology microscopic / brain / necrosis
rat [6] = details: Sub-acute repeat dose toxicity, Oral, Gavage/Intubation, dose end: 12 day
dog [7] = details: Sub-acute repeat dose toxicity, beagle, Oral, Gavage/Intubation, dose end: 14 day, group: systemic
rat [8] = details: Sub-acute repeat dose toxicity, Oral, Gavage/Intubation, dose end: 36 day
dog [9] = details: Sub-acute repeat dose toxicity; beagle; Oral; Gavage/Intubation; dose end: 14 day; group: systemic; systemic / clinical chemistry / [other] / [other] + systemic / clinical chemistry / cytochrome p450, nos / cytochrome p450, nos + systemic…
rat [10] = details: Fertility (Segment I), Oral, Gavage/Intubation, dose end: 1 generation, group: parental
dog [11] = details: Subchronic oral toxicity in nonrodent, beagle, Gavage/Intubation, dose end: 91 day, group: systemic, systemic / in life observation / clinical signs / emesis + systemic / organ weight / liver / absolute + systemic / pathology microscopic / …
rat [12] = details: Chronic toxicity; wistar; Oral; Feed; dose end: 104 week; group: systemic; systemic / pathology microscopic / eye / degeneration + systemic / pathology microscopic / prostate / fibrosis + systemic / pathology …
rat [13] = details: Subchronic oral toxicity in rodents, wistar, [Not Specified], dose end: 3 month, group: systemic
rat [14] = details: Multigenerational reproductive toxicity study, wistar, Oral, Feed, dose end: 2 generation
mouse [15] = details: Subchronic oral toxicity in rodents, other, Feed, dose end: 90 day, group: systemic, systemic / clinical chemistry / cholesterol / cholesterol + systemic / clinical chemistry / triglycerides / triglycerides + systemic / organ…
rat [16] = details: Subchronic oral toxicity in rodents, wistar, Feed, dose end: 90 day, group: systemic, systemic / pathology gross / adrenal gland / discolored + systemic / pathology gross / adrenal gland / enlarged + systemic / pathology …
dog [17] = details: Chronic toxicity, beagle, Oral, Feed, dose end: 52 week, group: systemic
[18] = systemic / clinical chemistry / [other] / [other] + systemic / hematology / leukocyte (wbc) count differential / leukocyte (wbc) + systemic…
[19] = group: developmental, developmental / developmental malformation / bone / delayed ossification + developmental / developmental malformation / bone / [other] + …
[20] = group: maternal, systemic / in life observation / body weight / body weight gain + systemic / in life observation / clinical signs / abnormal feces + …
[21] = systemic / clinical chemistry / [other] / [other] + systemic / clinical chemistry / cytochrome p450, nos / cytochrome p450, nos + systemic…
[22] = systemic / in life observation / food consumption / food consumption + systemic / pathology microscopic / kidney / dilatation + systemic / …
[23] = group: maternal, reproductive / offspring survival early / litter size / litter size + reproductive / reproductive performance / postimplantation loss / …
[24] = group: systemic, systemic / in life observation / body weight / body weight gain + systemic / in life observation / clinical signs / emaciation + systemic / …
[25] = systemic / clinical chemistry / [other] / [other] + systemic / clinical chemistry / creatinine / creatinine + systemic / clinical chemistry…
[26] = systemic / in life observation / clinical signs / abnormal feces + systemic / in life observation / food consumption / food consumption + …
[27] = group: maternal, reproductive / offspring survival early / dead fetuses / dead fetuses + reproductive / offspring survival early / litter viability other / …
[28] = group: maternal, reproductive / offspring survival early / dead fetuses / dead fetuses + reproductive / reproductive performance / gestational length / …
[29] = group: systemic, systemic / in life observation / body weight / body weight gain + systemic / in life observation / body weight / offspring (pup) weight + …
[30] = group: systemic, systemic / in life observation / clinical signs / [other] + systemic / in life observation / clinical signs / body cold to touch + systemic…
[31] = systemic / in life observation / body weight / body weight + systemic / in life observation / food consumption / food consumption
[32] = systemic / organ weight / kidney / nos + systemic / organ weight / prostate / nos + systemic / organ weight / adrenal gland / nos + systemic…
[33] = systemic / organ weight / prostate / nos + systemic / organ weight / adrenal gland / nos + systemic / organ weight / epididymis / nos + …
[34] = group: offspring, systemic / organ weight / adrenal gland / absolute + systemic / organ weight / liver / absolute
[35] = group: parental, systemic / organ weight / epididymis / absolute
[36] = group: reproductive, reproductive / reproductive performance / fertility / fertility + reproductive / offspring survival early / birth index / live birth index
[37] = systemic / hematology / reticulocyte / reticulocyte + systemic / organ weight / adrenal gland / absolute + systemic / organ weight / adrenal…

SMILES: CC(C)(C)c1cc(/C=C2\SC(N)=NC2=O)cc(C(C)(C)C)c1O.CS(=O)(=O)O [Darbufelone mesylate]
- LEL (rat [1]): 1 mg/kg/day
- LOAEL (rat [1]): > 75 mg/kg/day
- NEL (rat [1]): < 1 mg/kg/day
- NOAEL (rat [1]): ≥ 75 mg/kg/day
- LOAEL (mouse [2]; [18]): > 300 mg/kg/day
- NOAEL (mouse [2]; [18]): ≥ 300 mg/kg/day
- NEL (mouse [2]; systemic / clinical chemistry / protein / protein): < 35 mg/kg/day
- LEL (primate): 10 mg/kg/day
- LOAEL (primate): > 50 mg/kg/day
- NEL (primate): 5 mg/kg/day
- NOAEL (primate): ≥ 50 mg/kg/day
- LOAEL (rat [3]; [19]): > 75 mg/kg/day
- NOAEL (rat [3]; [19]): ≥ 75 mg/kg/day
- LOAEL (rat [3]; [20]): > 75 mg/kg/day
- NOAEL (rat [3]; [20]): ≥ 75 mg/kg/day
- LOAEL (rat [4]; [21]): > 75 mg/kg/day
- NOAEL (rat [4]; [21]): ≥ 75 mg/kg/day
- LEL (rat [4]; [22]): 10 mg/kg/day
- NEL (rat [4]; [22]): < 10 mg/kg/day
- LEL (dog [5]): 2 mg/kg/day
- NEL (dog [5]): < 2 mg/kg/day
- LEL (rat [6]; [23]): 75 mg/kg/day
- LOAEL (rat [6]; [23]): > 75 mg/kg/day
- NEL (rat [6]; [23]): 50 mg/kg/day
- NOAEL (rat [6]; [23]): ≥ 75 mg/kg/day
- LOAEL (rat [6]; [24]): > 75 mg/kg/day
- NEL (rat [6]; [24]): 10 mg/kg/day
- NOAEL (rat [6]; [24]): ≥ 75 mg/kg/day
- LOAEL (dog [7]; [25]): > 200 mg/kg/day
- NOAEL (dog [7]; [25]): ≥ 200 mg/kg/day
- LEL (dog [7]; [26]): 10 mg/kg/day
- NEL (dog [7]; [26]): < 10 mg/kg/day
- LOAEL (rat [8]; [27]): > 25 mg/kg/day
- NOAEL (rat [8]; [27]): ≥ 25 mg/kg/day
- LEL (rat [8]; [28]): 5 mg/kg/day
- NEL (rat [8]; [28]): < 5 mg/kg/day
- LOAEL (rat [8]; [29]): > 25 mg/kg/day
- NOAEL (rat [8]; [29]): ≥ 25 mg/kg/day
- LEL (rat [8]; [30]): 5 mg/kg/day
- NEL (rat [8]; [30]): < 5 mg/kg/day
- LEL (dog [9]): 2 mg/kg/day
- LOAEL (dog [9]): > 5 mg/kg/day
- NEL (dog [9]): < 2 mg/kg/day
- NOAEL (dog [9]): ≥ 5 mg/kg/day
- LEL (rat [10]; systemic / in life observation / body weight / body weight): 75 mg/kg/day
- LOAEL (rat [10]; [31]): > 100 mg/kg/day
- NEL (rat [10]; [31]): 35 mg/kg/day
- NOAEL (rat [10]; [31]): ≥ 100 mg/kg/day
- LEL (dog [11]): 2 mg/kg/day
- LOAEL (dog [11]): > 10 mg/kg/day
- NEL (dog [11]): < 2 mg/kg/day
- NOAEL (dog [11]): ≥ 10 mg/kg/day

SMILES: C=CC1(C)OC(=O)N(c2cc(Cl)cc(Cl)c2)C1=O (centres undefined) [Vinclozolin]
- LEL (rat [12]): 7 mg/kg/day
- LOAEL (rat [12]): 7 mg/kg/day
- NEL (rat [12]): < 7 mg/kg/day
- NOAEL (rat [12]): < 7 mg/kg/day
- LOAEL (rat [13]; [32]): > 225 mg/kg/day
- NOAEL (rat [13]; [32]): ≥ 225 mg/kg/day
- LEL (rat [13]; [33]): 50 mg/kg/day
- NEL (rat [13]; [33]): < 50 mg/kg/day
- LEL (rat [14]; [34]): 30 mg/kg/day
- LOAEL (rat [14]; [34]): 30 mg/kg/day
- NEL (rat [14]; [34]): 4.9 mg/kg/day
- NOAEL (rat [14]; [34]): 4.9 mg/kg/day
- LEL (rat [14]; [35]): 4.9 mg/kg/day
- LOAEL (rat [14]; [35]): 4.9 mg/kg/day
- NEL (rat [14]; [35]): < 4.9 mg/kg/day
- NOAEL (rat [14]; [35]): < 4.9 mg/kg/day
- NEL (rat [14]; group: reproductive, reproductive / reproductive performance / fertility / fertility): 101 mg/kg/day
- LEL (rat [14]; [36]): 290 mg/kg/day
- LOAEL (rat [14]; [36]): > 290 mg/kg/day
- NOAEL (rat [14]; [36]): ≥ 290 mg/kg/day
- LEL (mouse [15]): 230 mg/kg/day
- LOAEL (mouse [15]): 230 mg/kg/day
- NEL (mouse [15]): 20 mg/kg/day
- NOAEL (mouse [15]): 20 mg/kg/day
- LEL (rat [16]): 24 mg/kg/day
- LOAEL (rat [16]): 24 mg/kg/day
- NEL (rat [16]): 4.4 mg/kg/day
- NOAEL (rat [16]): 4.4 mg/kg/day
- LOAEL (dog [17]; [37]): 47 mg/kg/day
- NEL (dog [17]; [37]): 2.4 mg/kg/day
- NOAEL (dog [17]; [37]): 4.8 mg/kg/day
- LEL (dog [17]; systemic / organ weight / adrenal gland / absolute + systemic / organ weight / adrenal gland / relative to body weight + systemic / clinical…): 4.8 mg/kg/day
